Test: properties of crystalline AA-2G (stability, hygroscopicity, solubility)
Type: physicochemical
Excerpt: Different from the case of L-ascorbic acid, AA-2G hardly causes Maillard reaction. […] Also, by using AA-2G together with vitamins E and P, those biological activities can be increased. • (4) It is possible that AA-2G is produced and metabolized in living bodies when L-ascorbic acid and α-glucosyl saccharide are orally in taken. […] AA-2G can be advantageously used as vitamin C-reinforcement, taste-improving agent, acidifier, stabilizer, and the like for vitamin in the form of powder, granule, tablet, and the like, or foods such as cream, chocolate, chewing gum, instant juice, instant seasoning, and the like. • (6) Crystalline AA-2G is substantially non- or hardly hygroscopic.

solubility in water: high solubility
stability (crystalline product of Example 1): sufficient stability
SMILES: O=C1O[C@H]([C@@H](O)CO)C(O)=C1O[C@H]1O[C@H](CO)[C@@H](O)[C@H](O)[C@H]1O [AA-2G, 2-O-α-D-glucopyranosyl-L-ascorbic acid]
